Data published in ChEMBL document CHEMBL3525943, “Regiospecific and stereospecific triangulation of the structures of metabolites formed by sequential metabolism at multiple prochiral centers” (Drug Metab Dispos, 2012).

How the values were obtained:
[1] = Drug level in Sprague-Dawley rat urine treated with [14C]-(S)-2-((1R,2S,4R,5S)-5-hydroxybicyclo[2.2.1]heptan-2-ylamino)-5-isopropyl-5-methylthiazol-4(5H)-one at 5 mg/kg, po measured over 48 hrs by LC-MS/MS analysis; format: ADME, organism-based; design: dose 5 mg/kg, route oral; settings: in vivo
[2] = test system: Rattus norvegicus; test: Total drug recovery in female Sprague-Dawley rat treated with [14C]-AMG 221 at 2 mg/kg, po measured over 48 hrs by liquid scintillation counting analysis; format: ADME, organism-based; design: dose 2 mg/kg, route oral; settings: in vivo
[3] = Retention time of the compound in Beagle dog urine treated with [14C]-AMG 221 at 2 mg/kg, po measured over 24 hrs by LC-MS/HPLC radiometric analysis; format: ADME, organism-based, Canis lupus familiaris; design: dose 2 mg/kg, route oral; settings: in vivo
[4] = Drug excretion in female Sprague-Dawley rat feces treated with [14C]-AMG 221 at 2 mg/kg, po measured over 24 hrs by LC-MS/HPLC radiometric analysis; format: ADME, organism-based; design: dose 2 mg/kg, route oral; settings: in vivo
[5] = Retention time of the compound in Sprague-Dawley rat feces treated with [14C]-AMG 221 at 2 mg/kg, po measured over 48 hrs by LC-MS/HPLC radiometric analysis; format: ADME, organism-based; design: dose 2 mg/kg, route oral; settings: in vivo
[6] = Drug excretion in male Sprague-Dawley rat feces treated with [14C]-AMG 221 at 2 mg/kg, po measured over 24 hrs by LC-MS/HPLC radiometric analysis; format: ADME, organism-based; design: dose 2 mg/kg, route oral; settings: in vivo
[7] = Drug level in Sprague-Dawley rat feces treated with [14C]AMG221 at 2 mg/kg, po measured over 24 hrs by LC-MS/HPLC radiometric analysis; format: ADME, organism-based; design: dose 2 mg/kg, route oral; settings: in vivo
[8] = Retention time of the compound in Sprague-Dawley rat urine treated with [14C]-AMG 221 at 2 mg/kg, po measured over 24 hrs by LC-MS/HPLC radiometric analysis; format: ADME, organism-based; design: dose 2 mg/kg, route oral; settings: in vivo
[9] = Drug excretion in female Sprague-Dawley rat urine treated with [14C]-AMG 221 at 2 mg/kg, po measured over 24 hrs by LC-MS/HPLC radiometric analysis; format: ADME, organism-based; design: dose 2 mg/kg, route oral; settings: in vivo
[10] = Drug level in Sprague-Dawley rat urine treated with [14C]-AMG 221 at 2 mg/kg, po measured over 24 hrs by LC-MS/HPLC radiometric analysis; format: ADME, organism-based; design: dose 2 mg/kg, route oral; settings: in vivo
[11] = test system: Liver microsome; test: Retention time of the compound in rat liver microsomes treated with (S)-2-((1S,2S,4R)-bicyclo[2.2.1]heptan-2-ylamino)-5-(2-hydroxypropan-2-yl)-5-methylthiazol-4(5H)-one at 20 uM preincubated for 5 mins followed by NADPH addition measured after 60 mins by LC-MS/MS analysis; format: ADME; settings: 1 h
[12] = Drug excretion in male Sprague-Dawley rat urine treated with [14C]-AMG 221 at 2 mg/kg, po measured over 24 hrs by LC-MS/HPLC radiometric analysis; format: ADME, organism-based; design: dose 2 mg/kg, route oral; settings: in vivo
[13] = test system: Liver microsome; test: Drug level in rat liver microsomes treated with (S)-2-((1S,2S,4R,6R)-6-hydroxybicyclo[2.2.1]heptan-2-ylamino)-5-isopropyl-5-methylthiazol-4(5H)-one at 20 uM preincubated for 5 mins followed by NADPH addition measured after 60 mins by LC-MS/MS analysis; format: ADME; settings: 1 h

Drug metabolism [1]	Drug recovery [2] [%]	Retention_time [3] [min]	Drug excretion [4] [%]	Retention_time [5] [min]	Drug excretion [6]	Drug metabolism [7]	Retention_time [8] [min]	Drug excretion [9] [%]	Drug metabolism [10]	Retention_time [11] [min]	Drug excretion [12] [%]	Drug metabolism [13]	SMILES
metabolite_detected	0.2	20.6	–	–	–	–	–	–	–	–	–	–	CC(C)[C@]1(C)SC(N[C@H]2C[C@H]3C[C@@H]2C[C@@H]3O[C@@H]2O[C@H](C(=O)O)[C@@H](O)[C@H](O)[C@H]2O)=NC1=O
–	6	–	6	23.2	metabolite_not_detected	metabolite_detected	–	–	–	–	–	–	CC(C)[C@]1(C)SC(N[C@H]2C[C@H]3C[C@@H]2C[C@@H]3OS(=O)(=O)O)=NC1=O
–	0.9	15.1	24	–	8.3%	–	15.1	24	metabolite_detected	15.7	8.3	metabolite_detected	C[C@@H](CO)[C@]1(C)SC(N[C@H]2C[C@H]3C[C@@H]2[C@H](O)C3)=NC1=O
